According to patent publication US20230203025A1, “ENHANCERS OF PARTICULATE GUANYLYL CYCLASE RECEPTOR A” (Mayo Foundation for Medical Education and Research, priority 2020, published 2023):

How the values were obtained:
[1] = biological target: T1, pGC-A (Homo sapiens, UniProt P16066); test: cGMP production by HTRF in HEK293 cells overexpressing pGC-A; assay type: cell-based
T1 construct: expressed in transfected cells; host or cells: HEK293
T1 sequence (P16066 33-1061): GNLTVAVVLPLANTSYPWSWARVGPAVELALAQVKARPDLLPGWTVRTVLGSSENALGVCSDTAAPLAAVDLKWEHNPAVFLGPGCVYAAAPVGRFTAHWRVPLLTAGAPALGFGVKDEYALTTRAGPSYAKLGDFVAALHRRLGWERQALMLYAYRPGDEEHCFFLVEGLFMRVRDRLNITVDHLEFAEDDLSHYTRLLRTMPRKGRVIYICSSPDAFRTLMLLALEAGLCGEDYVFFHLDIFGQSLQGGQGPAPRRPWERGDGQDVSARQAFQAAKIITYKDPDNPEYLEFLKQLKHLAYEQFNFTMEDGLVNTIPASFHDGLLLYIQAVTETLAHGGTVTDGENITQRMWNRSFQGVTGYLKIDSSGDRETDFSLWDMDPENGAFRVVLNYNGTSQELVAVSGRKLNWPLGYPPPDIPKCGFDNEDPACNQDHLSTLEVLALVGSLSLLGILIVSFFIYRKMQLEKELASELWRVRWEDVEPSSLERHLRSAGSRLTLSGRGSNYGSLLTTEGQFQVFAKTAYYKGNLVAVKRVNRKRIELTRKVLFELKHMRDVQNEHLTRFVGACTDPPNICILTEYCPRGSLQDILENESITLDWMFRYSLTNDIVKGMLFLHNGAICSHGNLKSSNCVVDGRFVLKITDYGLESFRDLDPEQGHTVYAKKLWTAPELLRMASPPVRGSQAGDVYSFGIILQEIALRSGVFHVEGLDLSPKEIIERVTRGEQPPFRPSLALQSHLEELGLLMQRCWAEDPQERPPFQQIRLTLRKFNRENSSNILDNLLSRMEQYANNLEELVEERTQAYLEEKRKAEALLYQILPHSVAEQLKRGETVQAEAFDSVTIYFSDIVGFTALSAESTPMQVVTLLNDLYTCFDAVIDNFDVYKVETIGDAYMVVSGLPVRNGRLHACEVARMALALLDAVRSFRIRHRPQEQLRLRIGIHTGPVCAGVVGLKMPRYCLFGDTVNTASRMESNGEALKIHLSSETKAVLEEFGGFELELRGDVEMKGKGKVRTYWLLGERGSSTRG
T1 sequence (P01160 124-151 partner limits assumed): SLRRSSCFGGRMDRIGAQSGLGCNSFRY
Method: Assay details: 20 nL of 10 μM test compound in DMSO was added to columns 5-48 of 1536 well white high base screening plates (Corning, New York, N.Y.) cells using 550 ECHO acoustic dispenser (Labcyte, San Jose, Calif.). […] HEK293 cells overexpressing GC-A were resuspended in assay media (OptimMem media containing 2% Heat-inactivated Fetal bovine serum and L-glutamine) at a density of 6×10^5 cells/mL and 2 μL were plated in screening plates (1200 cells/well) in suspension using a Bioraptr 2. Plates were spun at 1000 rpm for 1 min and incubated for 30 min at room temperature. 1.5 μL d2-labled cGMP followed by 1.5 uL Eu^3+ cryptate-labeled anti-cGMP cGMP detection kit (CiBio; #62GM2PEC) prepared according to manufacturer's protocol were added to all wells using a Bioraptr 2 and TR-FRET signal was detected on an EnVision detector (PerkinElmer).

[2] = biological target: T2, extracellular domain human GC-A recombinant protein (Homo sapiens, UniProt P16066); test: SPR GC-A binding studies (Example 7); settings: Compound 19 alone, His-tagged GC-A on Ni-NTA chip
T2 construct: extracellular domain human GC-A recombinant protein; purchased MyBioSource, Inc
T2 sequence (P16066 33-473 limits assumed): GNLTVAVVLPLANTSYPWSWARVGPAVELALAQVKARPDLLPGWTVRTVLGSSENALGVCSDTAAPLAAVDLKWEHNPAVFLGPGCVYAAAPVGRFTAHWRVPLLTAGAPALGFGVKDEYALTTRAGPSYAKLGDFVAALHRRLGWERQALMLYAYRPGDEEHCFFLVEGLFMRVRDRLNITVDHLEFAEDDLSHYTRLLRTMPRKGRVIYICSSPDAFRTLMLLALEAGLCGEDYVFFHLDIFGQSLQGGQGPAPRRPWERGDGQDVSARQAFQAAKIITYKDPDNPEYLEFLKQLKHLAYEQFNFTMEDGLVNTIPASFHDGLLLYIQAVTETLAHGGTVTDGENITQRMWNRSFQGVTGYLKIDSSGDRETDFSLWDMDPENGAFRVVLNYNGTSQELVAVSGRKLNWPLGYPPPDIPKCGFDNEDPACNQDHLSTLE
Method: Methods (GC-A Binding Studies): Surface plasmon resonance (SPR) measurements were performed at 25° C. on a BI-4500 SPR instrument (Biosensing Instrument Inc. Tempe AZ). […] Data was collected as sensorgrams. Binding kinetics were derived from sensorgrams using BI-Data Analysis Program (Biosensing Instrument, Tempe Ariz.).

[3] = hepatic microsomal stability, mouse; assay type: in vitro ADME
[4] = biological target: T3, human GC-A (Homo sapiens, UniProt P16066); test: ex vivo cGMP generation in HEK293 GC-A cells incubated with human plasma; assay type: cell-based
T3 construct: expressed in transfected cells; host or cells: HEK293
T3 sequence (P16066 33-1061): T1 sequence (P16066 33-1061)
T3 sequence (P01160 124-151 partner limits assumed): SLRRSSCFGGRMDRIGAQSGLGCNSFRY
Method: Methods: Stored human plasma samples from normal subjects and patients with hypertension and HF were utilized. The details of the recruitment of these participants are previously reported. All participants gave written informed consent and the Institutional Review Board (IRB) at Mayo Clinic approved this study. […] HEK293 overexpressing human GC-A were cultured and grown as described above. Cells were grown in 48-well plates to 80-90% confluence. On the day of the experiment, cells were pre-incubated with Compound 19 at doses of 1, 5 or 10 μM and without (Veh) in 250 μL treatment buffer for 5 min at 37° C. 25 μL of human plasma was then added and incubated for additional 10 min. After, cells were washed with PBS once, lysed with 0.1M HCl and intracellular cGMP levels were measured in the lysate using a commercial cGMP ELISA kit (Enzo Life Sciences, Farmingdale, N.Y.) as instructed by the manufacturer.

[5] = LogD; assay type: physicochemical; settings: pH 7.4
[6] = pharmacokinetics after IV and PO dosing; assay type: in vivo, mouse; settings: plasma
[7] = system: primary human adipocytes (HAs; visceral and subcutaneous); test: cGMP generation in primary human adipocytes (visceral and subcutaneous); assay type: cell-based

For `CN(C)CCN1CCCC(C(=O)Nc2nc3c(F)cc(F)cc3s2)C1` (stereo not shown) [Compound 19], the Emax ([1]; HEK293, cGMP normalized to maximal amount produced by an EC80 concentration of ANP, read-out: Max efficacy) was 82%, the EC50 ([1]; HEK293 pGC-A cells, cGMP HTRF, in the presence of EC20 concentration of ANP) was 390 nM and the “cGMP activity in cells expressing pGC-A” value ([1]; in the absence of ANP) was “devoid of cGMP activity”. For the same compound, the Kd [2] was 390 nM, the “Hepatic Microsomal Stability (% remaining at 1 h)” value [3] was 83.6% and the “generation of cGMP levels in HEK293 GC-A cells” value ([4]; 1, 5 or 10 μM with human plasma from normal, hypertension and HF cohorts) was “potentiated the generation of cGMP levels”. The “cGMP potency by plasma cohort” value ([4]; HF plasma, highest circulating ANP and BNP) was “greatest cGMP potency”, the logD [5] was 3.04 and the clearance ([6]; Mean IV, mouse, 5 mg/kg) was 20.3 mL/min/kg. It also gave a Vd ([6]; Mean IV, mouse, 5 mg/kg, read-out: Vdss) of 16.8 L/kg, a Cmax ([6]; Mean PO, Mouse, 10 mg/kg) of 605 ng/mL and a half-life ([6]; Mean PO, Mouse, 10 mg/kg) of 9.13 h. For the same compound, the AUC ([6]; Mean PO, Mouse, 10 mg/kg, read-out: Exposure (AUC)) was 7100 ng·h/mL, the bioavailability ([6]; Mouse, PO 10 mg/kg vs IV 5 mg/kg) was 107% and the cGMP generation ([7]; HAs, 1, 5 and 10 μM compound in the presence of ANP (10^−10 M)) was “clear increase in cGMP generation”. The cGMP generation ([7]; HAs, compound alone at similar dose, no ANP) was “did not generate cGMP generation”.
